Test results reported in the supplement of paper PMC10307832.

What was measured:
Test in all cases: relative viability (nuclei count vs DMSO), 5 days (fraction); higher = more cells survive
Avagacestat + Pictilisib = compound: NC(=O)[C@@H](CCC(F)(F)F)N(Cc1ccc(-c2ncon2)cc1F)S(=O)(=O)c1ccc(Cl)cc1 [Avagacestat] + CS(=O)(=O)N1CCN(Cc2cc3nc(-c4cccc5[nH]ncc45)nc(N4CCOCC4)c3s2)CC1 [Pictilisib] (partner 1 µM)
How it was run: (§1)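 One day after seeding in 1536-well plates, lung cancer cell lines were dosed by pin tool. Dosing was either single-drug or a fixed anchor-drug dose plus five library-drug doses (not always all listed) in √10 steps. After 5 days, nuclei were stained in one fix-and-stain step and counted on 4× images, and relative viability is the nuclei count of treated wells over that of vehicle wells, given as the median of duplicate plates.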

Avagacestat + Dasatinib = compound: NC(=O)[C@@H](CCC(F)(F)F)N(Cc1ccc(-c2ncon2)cc1F)S(=O)(=O)c1ccc(Cl)cc1 [Avagacestat] + Cc1nc(Nc2ncc(C(=O)Nc3c(C)cccc3Cl)s2)cc(N2CCN(CCO)CC2)n1 [Dasatinib] (partner 0.075 µM)
How it was run: as §1

Avagacestat + Crizotinib = compound: NC(=O)[C@@H](CCC(F)(F)F)N(Cc1ccc(-c2ncon2)cc1F)S(=O)(=O)c1ccc(Cl)cc1 [Avagacestat] + C[C@@H](Oc1cc(-c2cnn(C3CCNCC3)c2)cnc1N)c1c(Cl)ccc(F)c1Cl [Crizotinib] (partner 1 µM)
How it was run: as §1

Avagacestat + Vorinostat = compound: NC(=O)[C@@H](CCC(F)(F)F)N(Cc1ccc(-c2ncon2)cc1F)S(=O)(=O)c1ccc(Cl)cc1 [Avagacestat] + O=C(CCCCCCC(=O)Nc1ccccc1)NO [Vorinostat] (partner 1 µM)
How it was run: as §1

Cell Line	relative viability (Avagacestat + Pictilisib; first compound 0.08 µM)	relative viability (Avagacestat + Pictilisib; first compound 0.253 µM)	relative viability (Avagacestat + Pictilisib; first compound 0.8 µM)	relative viability (Avagacestat + Pictilisib; first compound 2.53 µM)	relative viability (Avagacestat + Pictilisib; first compound 8 µM)	relative viability (Avagacestat + Dasatinib; first compound 0.08 µM)	relative viability (Avagacestat + Dasatinib; first compound 0.253 µM)	relative viability (Avagacestat + Dasatinib; first compound 0.8 µM)	relative viability (Avagacestat + Dasatinib; first compound 2.53 µM)	relative viability (Avagacestat + Dasatinib; first compound 8 µM)	relative viability (Avagacestat + Crizotinib; first compound 0.08 µM)	relative viability (Avagacestat + Crizotinib; first compound 0.253 µM)	relative viability (Avagacestat + Crizotinib; first compound 0.8 µM)	relative viability (Avagacestat + Crizotinib; first compound 2.53 µM)	relative viability (Avagacestat + Crizotinib; first compound 8 µM)	relative viability (Avagacestat + Vorinostat; first compound 0.08 µM)	relative viability (Avagacestat + Vorinostat; first compound 0.253 µM)	relative viability (Avagacestat + Vorinostat; first compound 0.8 µM)	relative viability (Avagacestat + Vorinostat; first compound 2.53 µM)	relative viability (Avagacestat + Vorinostat; first compound 8 µM)
NCI-H2405	0.432	0.465	0.473	0.329	0.377	0.186	0.204	0.217	0.229	0.226	0.881	0.825	0.81	0.849	0.853	1.04	1.1	1.12	0.943	0.933
NCI-H3122	0.723	0.751	0.748	0.715	0.607	0.944	0.759	0.843	0.815	0.774	0.318	0.287	0.291	0.289	0.288	1.07	1.4	1.01	1.02	0.918
PC-3 [JPC-3]	0.806	0.903	0.794	0.772	0.72	1.17	1.14	1.16	0.888	0.843	1.15	1.25	1.16	1.05	0.993	0.944	0.87	1.33	0.857	0.949
PC-14	1.06	0.627	0.673	0.544	0.539	0.214	0.182	0.169	0.13	0.207	0.995	0.97	0.936	1.04	0.829	0.774	0.725	0.808	0.589	0.619
RERF-LC-KJ	0.526	0.599	0.549	0.464	0.617	0.974	0.915	0.776	0.748	0.664	0.799	0.839	0.924	0.792	0.761	0.724	0.64	0.801	0.685	0.601
SK-LU-1	0.628	0.526	0.586		0.354	0.172	0.138	0.18	0.142	0.189	0.843	0.858	0.946	0.786	0.753	0.885	0.714	0.865	0.636	0.71
SK-MES-1	0.377	0.387	0.306	0.294	0.288	0.33	0.301	0.394	0.247	0.364	0.943	1.06	0.97	0.902	0.915	1.12	1.35	1.29	1.06	1.02
SW 1573	0.771	0.625	0.524	0.492	0.444	0.515	0.593	0.523	0.565	0.279	0.844	0.905	0.777	0.816	0.709	0.933	0.672	1.05	0.624	0.672
UMC-11	0.966	0.747	0.964	0.844	0.867	0.633	0.598	0.647	0.541	0.473	0.632	0.664	0.749	0.582	0.585	0.388	0.396	0.398	0.396	0.412
